# Assay results: article PMC8249783, “A novel multikinase inhibitor SKLB‐YTH‐60 ameliorates inflammation and fibrosis in bleomycin‐induced lung fibrosis mouse models” (Cell Proliferation, 2021)
# Tests used:
# [1] = test system: phosphorylation of Smad2/3; assay: Western blot of TGF‐β1‐induced Smad signalling in fibroblasts; format: cell-based; settings: TGF‐β1, 24 hours
# Experimental: Samples of cells and mouse lung tissues were lysed in RIPA buffer with a protease and phosphatase inhibitors (Selleckchem). The protein concentrations in the cell lysate were measured by the Lowry method. Approximately 50 μg of total protein was separated by SDS‐PAGE and then transferred to polyvinylidene fluoride (PVDF) membranes (Amersham Bioscience). After the membranes incubation with the specific primary and secondary antibodies, the reactive bands were detected with enhanced chemiluminescent substrate to horseradish peroxidase.
# [2] = test system: TNF‐α, IFN‐γ, IL‐2, IL‐4, IL‐10 and IL‐17A; assay: Serum cytokines in BLM mice (Th1/Th2/Th17 Cytokine Kit); format: in vivo, C57BL/6 mice; settings: day 14
# Experimental: (§1) Male C57BL/6 mice (8‐10 weeks old) were purchased from HFK Bioscience Co. Ltd. All animal experiments were permitted by the Institutional Animal Care and Treatment Committee of Sichuan University in China (New Permit Number: 20190524003). Lung fibrosis was induced using BLM treatment (2 mg·kg^−1). All C57BL/6 mice were divided into five groups (n = 10): a BLM + Nintedanib group (Nintedanib, 30 mg·kg^−1), a BLM + YTH‐60 group (YTH‐60, 15 mg·kg^−1 and 30 mg·kg^−1), a control group (Sham), and a bleomycin group (Vehicle). At the beginning, the mice were anaesthetized using 10% chloral hydrate, dissolved BLM with saline and administered intratracheally. To evaluate the preventive effect, the next day after BLM challenge, YTH‐60 and Nintedanib were administered intraperitoneally daily for 13 days (fibroproliferation) to the mice. All mice were sacrificed 24 hours after the last drug injection, the lungs and other organs were taken for the subsequent analysis. To test the therapeutic effect, after the 7th day of BLM treatment, mice were injected intraperitoneally with YTH‐60, Nintedanib and vehicle daily for 7 consecutive days (fibroproliferation).
# IL‐2, IL‐4, IL‐10, IL‐17A, TNF‐α and IFN‐γ levels in mouse serum were determined using a mouse Th1/Th2/Th17 Cytokine Kit (BD Biosciences) according to the manufacturer's instructions. […]
# [3] = test system: lung MDSCs and macrophages; assay: Flow cytometry of MDSCs and macrophages in lung tissue of BLM mice; format: in vivo, C57BL/6 mice; settings: 30 mg·kg^−1 i.p.
# Experimental: as §1
# We analysed the percentage of MDSCs and macrophages by Flow cytometry (FCM). ^22 Use scissors to cut approximately 30 mg of mouse lung tissues into small pieces and use 5 mL of collagenase‐IV with a concentration of 1 mg·mL^−1, digested at 37°C for at least 1 hour. Centrifuge at 400 g for 5 minutes and discard the supernatant. Then, add another 5 mL PBS to resuspend, after precipitation, taken the supernatant and mixed with the corresponding fluorochromium binding antibody, incubate for 30 minutes in the dark at 4°C (MDSCs with PE^−CD11b^−, FITC^−Gr1^− conjugated dual labelling and macrophages with PE^−F4/80^−, FITC^−CD11b^− conjugated dual labelling). The data were acquired with a FACS Canton II NovoCyte (ACEA).
# [4] = test system: BLM‐induced pulmonary fibrosis; assay: BLM‐induced pulmonary fibrosis mouse model, preventive treatment; format: in vivo, C57BL/6 mice; settings: mice, day 14
# Experimental: as §1, with “To test the therapeutic effect, after the 7th day of BLM treatment, mice were injected intraperitoneally with YTH‐60, Nintedanib and vehicle daily for 7 consecutive days (fibroproliferation).” left out
# The left lung was detached and immediately fixed in 4% paraformaldehyde for 72 hours and then embed with paraffin wax. […] Ashcroft scoring was used to examine the severity of pulmonary fibrosis. ^20 The image analysis‐based system to quantify collagen deposition was described previously. ^21 […]
smiles,measurement,setting,value
"COc1cc(OC)c(Cl)c(-c2ccc3c(/C=C/c4ccc(N(C)C(=O)CN5CCN(C)CC5)cc4)n[nH]c3c2)c1Cl [YTH‐60, (E)‐N‐(4‐(2‐(6‐(2,6‐dichloro‐3,5‐dimethoxyphenyl)‐1H‐indazol‐3‐yl)vinyl)phenyl)‐N‐methyl‐2‐(4‐methylpiperazin‐1‐yl)acetamide]",TGF‐β1‐induced phosphorylation of Smad2/3 (in words),[1],significantly reduced this phosphorylation
same,inflammatory cytokines in serum (in words),[2],reduced the expression level of these inflammatory cytokines
same,percentage of CD11b^+F4/80^+ cells (macrophages) in lung,"[3]; day 14, BLM group 19.9%, sham 9.9%",9.27%
same,percentage of CD11b^+Gr1^+ cells (MDSCs) in lung,"[3]; day 14, BLM group 20.5%, sham 5.14%",7.07%
same,preventive effect on BLM‐induced pulmonary fibrosis (in words),[4]; 15 mg·kg^−1 i.p.,less effective
same,preventive effect on BLM‐induced pulmonary fibrosis (in words),[4]; 30 mg·kg^−1 i.p.,good preventive effect
